Assay results published in patent US8859582B2, “Bicyclic heterocyclic compounds as protein tyrosine kinase inhibitors” (Astex Therapeutics Limited, priority 2007, dated 2014).

Test system: LP-1 cell line
Assay: Cell-based pERK ELISA, LP-1 cells
Conditions: LP-1 human multiple myeloma cells, FGF-1/Heparin stimulation; read-out: IC50 against the LP-1 cell line (pERK ELISA)
Experimental: Enzyme buffer A: 8 mM MOPS, pH 7.0, 0.2 mM EDTA, 10 mM MgAcetate Enzyme buffer B: 8 mM MOPS, pH 7.0, 0.2 mM EDTA, 2.5 mM MnCl2, 10 mM MgAcetate Enzyme buffer C: 8 mM Mops, pH 7.0, 0.2 mM EDTA, 10 mM MnCl2, 10 mM MgAcetate. Cell-Based pERK ELISA Method
LP-1 or JIM-1 multiple myeloma cells were seeded in 96 well plates at 1×10^6 cells/ml in 200 μl per well in serum free media. HUVEC cells were seeded at 2.5×10^5 cells/ml and allowed to recover for 24 h prior to transfer to serum free media. Cells were incubated for 16 h at 37° C. prior to the addition of a test compound for 30 minutes. Test compounds were administered at a 0.1% final DMSO concentration. Following this 30 minute incubation a FGF-1/Heparin (FGF-1 at 100 ng/ml final and Heparin at 100 ug/ml) mixture or VEGF^165 (100 ug/ml) was added to each of the wells for a further 5 minutes. The media was removed and 50 ul ERK ELISA lysis buffer (R and D Systems DuoSet ELISA for pERK and Total ERK #DYC-1940E, DYC-1018E) added. ELISA plates and standards were prepared according to the standard DuoSet protocols and the relative amounts of pERK to total ERK in each sample calculated according to the standard curve.
In particular, compounds of the invention were tested against the LP-1 cell line (DSMZ no.: ACC 41) derived from human multiple myeloma.

With `O=C(c1ccn2c(-c3cccc(Nc4nncs4)c3)cnc2c1)N1CCC1` [Example 2, Azetidin-1-yl-{3-[3-([1,3,4]thiadiazol-2-ylamino)-phenyl]-imidazo[1,2-a]pyridine-7-yl}-methanone] the IC50 was under 1 µM.
